Measurements as given in patent US4103004A, “Cardiotonic agent” (University of Hawaii, priority 1977, dated 1978).

Key:
[1] = Solubility in deionized water; format: physicochemical
[2] = Stability at neutral and lower pH; format: physicochemical; settings: neutral and lower pH values
isolated rat atria = assay: Bioassay for positive inotropic effect on isolated rat atria; format: cell-based
Experimental: Bioassay for Determining Positive Inotropic Effect
Bioassays of the solutions containing anthopleurin-C are performed on isolated atria of rat hearts. The atrium is separated from the rest of the heart and suspended in an isolated organ bath (20, 25, or 50 ml.) containing Krebs Ringer bicarbonate medium (pH 7.4) of the following composition in distilled deionized water (in mmoles): Na^+, 145; K^+, 6.02; Ca^+2, 1.22; Mg^+2, 1.33; Cl^-, 126; HCO3^-, 25.3; PO4^-3, 1.2; SO4^-2, 1.33; and glucose, 5.5. The temperature of the organ bath is maintained at 30° C., and the Krebs-Ringer medium is continuously aerated with 95% O2 --5% CO2.
The spontaneously beating atrial preparation is connected by a thin silk thread to a force-displacement transducer (Grass model FT.03), and the contractile movements are recorded on a six-channel polygraph Grass Model 7. The preparation is allowed to equilibrate under 750 mg. tension for 60 minutes prior to beginning an assay. After this equilibration, during which the preparations are washed out every 30 minutes, the spontaneous beat rate of the atria remains constant; the change during a 10-minute observation being less than 5 beats/min. The changes in contractile force and rate produced by the test solution containing anthopleurin-C is expressed as a percentage increase or decrease in tension and rhythm, with the period immediately preceding addition of test solution to the tissue bath as the baseline for comparison.

Isoelectric focusing = format: physicochemical; settings: doubly purified material
Description: For the purpose of obtaining electrophoretic properties, the anthopleurin-Cobtained in Example 1, Steps a through d below, was rechromatographed on CM Sephadex C-25, and G-10 according to the process set forth in Example 1, Steps c, and d, respectively. The doubly purified material was subjected to electrophoretic analysis using commercially available pre-cast 12% acrylamide gels and matched buffer systems obtained from Bio·Rad Laboratories, 32nd and Griffin, Richmond, California.
Isoelectric focusing gave the isoelectric point at a pH = 8.0. Disc gel electrophoresis with 12% polyacrylamide gel at pH 3.6 gave an Rf value of 0.49 versus methyl green tracking dye. […] Sodium dodecyl sulfate (SDS) disc gel electrophoresis using a 10% gel indicated a m.w. of about 5,200 after incubation with dithioerythritol, using RNase A and pancreatic trypsin inhibitor (PTI) for comparison. The molecular weight is so low that these values are only approximate.

anthopleurin-C
solubility [1]: very soluble | stability [2]: relatively stable | potency relative to ouabain in positive inotropic effect (isolated rat atria; fold as potent as ouabain): 200-1000 x | ED50, positive inotropic effect (isolated rat atria; isolated rat atria): 3 nM | chronotropic effect (isolated rat atria; isolated rat atria): does not show any chronotropic effect | isoelectric point (Isoelectric focusing): 8.0 pH
